For 14 molecules, Relative activity and IC50 results are on record in ChEMBL document CHEMBL1144931, “Synthesis, characterization, and biological properties of 8-azido- and 8-amino-substituted 2',5'-oligoadenylates” (J Med Chem, 2003).

Test [1] concerns the target T1, 2-5A-dependent ribonuclease (Mus musculus) (UniProt Q05921).
T1 sequence (whole entry): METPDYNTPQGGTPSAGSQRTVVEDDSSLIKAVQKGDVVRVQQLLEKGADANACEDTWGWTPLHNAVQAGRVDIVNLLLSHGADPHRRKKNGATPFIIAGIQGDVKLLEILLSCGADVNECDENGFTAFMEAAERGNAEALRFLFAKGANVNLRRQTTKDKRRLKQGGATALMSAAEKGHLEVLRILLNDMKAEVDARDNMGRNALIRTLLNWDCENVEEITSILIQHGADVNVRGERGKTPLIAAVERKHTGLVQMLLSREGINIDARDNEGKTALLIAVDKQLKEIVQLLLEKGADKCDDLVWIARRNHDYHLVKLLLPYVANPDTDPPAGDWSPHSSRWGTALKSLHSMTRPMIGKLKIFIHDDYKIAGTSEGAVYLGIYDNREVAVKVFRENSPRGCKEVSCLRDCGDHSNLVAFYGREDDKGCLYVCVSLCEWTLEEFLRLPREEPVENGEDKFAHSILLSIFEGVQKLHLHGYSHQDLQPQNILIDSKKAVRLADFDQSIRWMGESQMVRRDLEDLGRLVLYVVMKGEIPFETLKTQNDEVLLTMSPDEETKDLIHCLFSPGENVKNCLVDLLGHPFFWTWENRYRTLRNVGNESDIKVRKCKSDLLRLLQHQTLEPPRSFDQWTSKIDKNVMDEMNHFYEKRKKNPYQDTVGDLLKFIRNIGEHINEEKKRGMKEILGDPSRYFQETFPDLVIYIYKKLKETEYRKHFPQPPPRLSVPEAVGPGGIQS
The experiment in a line: Relative displacement of [125I]-labeled 2-5A from Ribonuclease L of mouse liver compared to pApApA.

In test [2] the target is T2, 2-5A-dependent ribonuclease (Mus musculus, UniProt Q05921).
T2 sequence (Q05921 whole entry): T1 sequence (whole entry)
As to the kind of experiment: Displacement of [125I]-labeled 2-5A from 2-5A dependent Ribonuclease L (RNase L) of mouse liver. (Displacement assays read how much labelled ligand stays bound in the presence of the test substance.)

Bounds are passed on as bounds.

As usually defined, the IC50 is the concentration needed to halve the response being measured. Turning to `Nc1ncnc2c1nc(N)n2C1O[C@H](COP(=O)(O)O[C@H]2C(n3c(N)nc4c(N)ncnc43)O[C@H](COP(=O)(O)O[C@H]3C(n4c(N)nc5c(N)ncnc54)O[C@H](COP(=O)(O)O[C@H]4C(n5c(N)nc6c(N)ncnc65)O[C@H](COP(=O)(O)O)[C@H]4O)[C@H]3O)[C@H]2O)[C@@H](O)[C@H]1O` (stereo partly specified), the Relative activity in test [1] turned out to be 0.008. In test [2], this molecule yielded a concentration for half-maximal inhibition (IC50) of 500 nM. For `Nc1ncnc2c1nc(N)n2[C@@H]1O[C@H](COP(=O)(O)O[C@@H]2[C@H](O)[C@@H](COP(=O)(O)O[C@@H]3[C@H](O)[C@@H](COP(=O)(O)O[C@@H]4[C@H](O)[C@@H](CO)O[C@H]4n4c(N)nc5c(N)ncnc54)O[C@H]3n3c(N)nc4c(N)ncnc43)O[C@H]2n2c(N)nc3c(N)ncnc32)[C@@H](O)[C@H]1O` the same measures were 0.004 and 1000 nM. In turn, `[N-]=[N+]=Nc1nc2c(N)ncnc2n1[C@@H]1O[C@H](COP(=O)(O)O[C@@H]2[C@H](O)[C@@H](COP(=O)(O)O[C@@H]3[C@H](O)[C@@H](COP(=O)(O)O[C@@H]4[C@H](O)[C@@H](CO)O[C@H]4n4c(N=[N+]=[N-])nc5c(N)ncnc54)O[C@H]3n3c(N=[N+]=[N-])nc4c(N)ncnc43)O[C@H]2n2c(N=[N+]=[N-])nc3c(N)ncnc32)[C@@H](O)[C@H]1O` had a Relative activity in test [1] of 0.8. The same molecule gave an IC50 in test [2] of 50 nM.

Regarding `[N-]=[N+]=Nc1nc2c(N)ncnc2n1C1OC(COP(=O)(O)O)C(O)C1OP(=O)(O)OCC1OC(n2c(N=[N+]=[N-])nc3c(N)ncnc32)C(OP(=O)(O)OC[C@H]2OC(n3c(N=[N+]=[N-])nc4c(N)ncnc43)[C@H](O)[C@@H]2O)C1O` (stereo partly specified), in test [1], the Relative activity was 2. For the same molecule, the IC50 in test [2] came to 2 nM. For `Nc1ncnc2c1nc(N)n2C1O[C@H](COP(=O)(O)O[C@H]2C(n3c(N)nc4c(N)ncnc43)O[C@H](COP(=O)(O)O)[C@H]2O)[C@@H](O)[C@H]1O` (stereo partly specified) the same measures were less than 0.0004 and greater than 10000 nM. Consider `Nc1ncnc2c1ncn2[C@@H]1O[C@H](CO[P@](=O)(O)O[C@@H]2[C@H](O)[C@@H](CO[P@](=O)(O)O[C@@H]3[C@H](O)[C@@H](CO[P@](=O)(O)O[P@@](=O)(O)OP(=O)(O)O)O[C@H]3n3cnc4c(N)ncnc43)O[C@H]2n2cnc3c(N)ncnc32)[C@@H](O)[C@H]1O`, for which the IC50 in test [2] came to 3 nM. For `[N-]=[N+]=Nc1nc2c(N)ncnc2n1C1O[C@H](COP(=O)(O)O[C@H]2C(n3c(N=[N+]=[N-])nc4c(N)ncnc43)O[C@H](CO)[C@H]2O)[C@@H](O)[C@H]1O` (stereo partly specified), in test [1], the Relative activity is less than 0.0004. In test [2], this molecule displayed an IC50 greater than 10000 nM. For `[N-]=[N+]=Nc1nc2c(N)ncnc2n1C1O[C@H](COP(=O)(O)O[C@H]2C(n3c(N=[N+]=[N-])nc4c(N)ncnc43)O[C@H](COP(=O)(O)O)[C@H]2O)[C@@H](O)[C@H]1O` (stereo partly specified) the same measures were 0.0008 and 5000 nM. In turn, `Nc1ncnc2c1nc(N)n2[C@@H]1O[C@H](COP(=O)(O)O[C@@H]2[C@H](O)[C@@H](COP(=O)(O)O[C@@H]3[C@H](O)[C@@H](COP(=O)(O)O)O[C@H]3n3c(N)nc4c(N)ncnc43)O[C@H]2n2c(N)nc3c(N)ncnc32)[C@@H](O)[C@H]1O` came in with a Relative activity in test [1] of less than 0.0004. The half-maximal inhibitory concentration (IC50) in test [2] was greater than 10000 nM. The corresponding values for `[N-]=[N+]=Nc1nc2c(N)ncnc2n1C1O[C@H](COP(=O)(O)O[C@H]2C(n3c(N=[N+]=[N-])nc4c(N)ncnc43)OC(COP(=O)(O)O[C@H]3C(n4c(N=[N+]=[N-])nc5c(N)ncnc54)O[C@H](CO)[C@H]3O)[C@H]2O)[C@@H](O)[C@H]1O` (stereo partly specified) are 0.6 and 70 nM.

As for `Nc1ncnc2c1ncn2[C@@H]1O[C@H](COP(=O)(O)O[C@@H]2[C@H](O)[C@@H](COP(=O)(O)O[C@@H]3[C@H](O)[C@@H](COP(=O)(O)OP(=O)(O)OP(=O)(O)O)O[C@H]3n3cnc4c(N)ncnc43)O[C@H]2n2cnc3c(N)ncnc32)[C@@H](O)[C@H]1O`, the Relative activity in test [1] came out at 1.3. As for `[N-]=[N+]=Nc1nc2c(N)ncnc2n1[C@@H]1O[C@H](COP(=O)(O)O[C@@H]2[C@H](O)[C@@H](COP(=O)(O)O[C@@H]3[C@H](O)[C@@H](COP(=O)(O)O[C@@H]4[C@H](O)[C@@H](COP(=O)(O)O)O[C@H]4n4c(N=[N+]=[N-])nc5c(N)ncnc54)O[C@H]3n3c(N=[N+]=[N-])nc4c(N)ncnc43)O[C@H]2n2c(N=[N+]=[N-])nc3c(N)ncnc32)[C@@H](O)[C@H]1O`, in test [1], the Relative activity came to 2. This molecule came in with an IC50 in test [2] of 2 nM. For `Nc1ncnc2c1nc(N)n2C1O[C@H](COP(=O)(O)O[C@H]2C(n3c(N)nc4c(N)ncnc43)O[C@H](CO)[C@H]2O)[C@@H](O)[C@H]1O` (stereo partly specified) the same measures were less than 0.0004 and greater than 10000 nM. For `Nc1ncnc2c1nc(N)n2[C@@H]1O[C@H](COP(=O)(O)O[C@@H]2[C@H](O)[C@@H](COP(=O)(O)O[C@@H]3[C@H](O)[C@@H](CO)O[C@H]3n3c(N)nc4c(N)ncnc43)O[C@H]2n2c(N)nc3c(N)ncnc32)[C@@H](O)[C@H]1O` the same measures were less than 0.0004 and greater than 10000 nM.
